Test results: patent US9206200B2, “N-linked lactam M1 receptor positive allosteric mogulators” (Merck Sharp & Dohme Corp., priority 2011, dated 2015)
Where two headings read alike, the source gives them in different places.

Molecular target: T1, acetylcholine muscarinic M1 receptor (Homo sapiens, UniProt P11229)
T1 construct: expressed in transfected cells; host or cells: CHOnfat cells (CHO cells with an NFAT reporter) expressing hM1, kept under Geneticin selection
T1 sequence (P11229 1-460): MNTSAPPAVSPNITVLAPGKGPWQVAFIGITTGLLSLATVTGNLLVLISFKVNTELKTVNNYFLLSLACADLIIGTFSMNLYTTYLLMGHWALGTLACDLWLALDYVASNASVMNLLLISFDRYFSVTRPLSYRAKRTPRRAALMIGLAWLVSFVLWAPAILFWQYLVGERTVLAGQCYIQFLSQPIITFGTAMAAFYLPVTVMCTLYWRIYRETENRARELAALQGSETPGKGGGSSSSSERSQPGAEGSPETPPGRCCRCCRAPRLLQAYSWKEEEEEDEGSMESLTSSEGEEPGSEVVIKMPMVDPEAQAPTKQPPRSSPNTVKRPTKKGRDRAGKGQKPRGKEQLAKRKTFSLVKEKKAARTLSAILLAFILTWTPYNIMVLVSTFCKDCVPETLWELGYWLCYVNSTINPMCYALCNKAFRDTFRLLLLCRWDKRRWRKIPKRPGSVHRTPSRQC
Assay: muscarinic FLIPR assay: intracellular calcium in CHOnfat/hM1 cells, potentiation of EC20 acetylcholine
Format: cell-based
Settings: Table 2, CHOnfat/hM1 cells, FLIPR, EC20 acetylcholine (3 nM final)
Outline: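 CHOnfat cells stably expressing human M1, Fluo-4AM-loaded, in HBSS with 20 mM HEPES, 2.5 mM probenecid, 1% BSA. Compounds preincubated 4 min (printed "4 mM") before an EC20 acetylcholine challenge (3 nM final). FLIPR intracellular Ca²⁺ signal compared with 3 nM acetylcholine alone to detect potentiation.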

O=C1c2cc(CN3CCC(C(F)(F)F)CC3)c3cccnc3c2CN1C1CCCCC1O (stereo not shown) [Example 123, 8-(2-hydroxycyclohexyl)-5-{[4-(trifluoromethyl)piperidin-1-yl]methyl}-8,9-dihydro-7H-pyrrolo[3,4-h]quinolin-7-one] was tested, and the EC50 (read-out: M1 Pot.) was 97 nM.
C#CC1CCN(Cc2cc3c(c4ncccc24)CN(C2CCCCC2O)C3=O)CC1 (stereo not shown) [Example 124, 5-[(4-ethynylpiperidin-1-yl)methyl]-8-(2-hydroxycyclohexyl)-8,9-dihydro-7H-pyrrolo[3,4-h]quinolin-7-one] showed an EC50 (read-out: M1 Pot.) of 44 nM.
In the case of CCCC#CC1(F)CCN(Cc2cc3c(c4ncccc24)CN([C@H]2CCCC[C@@H]2O)C3=O)CC1 [Example 125, 5-[(4-fluoro-4-pent-1-yn-1-ylpiperidin-1-yl)methyl]-8-[(1S,2S)-2-hydroxycyclohexyl]-8,9-dihydro-7H-pyrrolo[3,4-h]quinolin-7-one], the EC50 (read-out: M1 Pot.) is reported as 130 nM.
N#CC1(F)CCN(Cc2cc3c(c4ncccc24)CN(c2cccc(O)c2)C3=O)CC1 [Example 127, 4-fluoro-1-{[8-(3-hydroxyphenyl)-7-oxo-8,9-dihydro-7H-pyrrolo[3,4-h]quinolin-5-yl]methyl}piperidine-4-carbonitrile] showed an EC50 (read-out: M1 Pot.) of 44 nM.
Work on C#CC1(F)CCN(Cc2cc3c(c4ncccc24)CN(c2cccc(O)c2)C3=O)CC1 [Example 128, 5-[(4-ethynyl-4-fluoropiperidin-1-yl)methyl]-8-(3-hydroxyphenyl)-8,9-dihydro-7H-pyrrolo[3,4-h]quinolin-7-one] yielded an EC50 (read-out: M1 Pot.) of 843 nM.
Work on CN(C)C(=O)Oc1cccc(N2Cc3c(cc(CN4CCC(F)(C#N)CC4)c4cccnc34)C2=O)c1 [Example 129, 3-{5-[(4-cyano-4-fluoropiperidin-1-yl)methyl]-7-oxo-7,9-dihydro-8H-pyrrolo[3,4-h]quinolin-8-yl}phenyl dimethyl carbamate] yielded an EC50 (M1 Pot.) of 2170 nM.
For C#CC1(F)CCN(Cc2cc3c(c4ncccc24)CN(c2cccc(OC(=O)N(C)C)c2)C3=O)CC1 [Example 130, 3-{5-[(4-ethynyl-4-fluoropiperidin-1-yl)methyl]-7-oxo-7,9-dihydro-8H-pyrrolo[3,4-h]quinolin-8-yl}phenyl dimethylcarbamate], the EC50 (M1 Pot.) was 1430 nM.
In the case of CC#CC1(F)CCN(Cc2cc3c(c4ncccc24)CN([C@H]2CCCC[C@@H]2O)C3=O)CC1 [Example 131, 5-[(4-fluoro-4-prop-1-yn-1-ylpiperidin-1-yl)methyl]-8-[(1S,2S)-2-hydroxycyclohexyl]-8,9-dihydro-7H-pyrrolo[3,4-h]quinolin-7-one], the EC50 (read-out: M1 Pot.) is reported as 33 nM.
O=C1c2cc(CN3CCC(F)(C#CC4CC4)CC3)c3cccnc3c2CN1[C@H]1CCCC[C@@H]1O [Example 132, 5-{[4-(cyclopropylethynyl)-4-fluoropiperidin-1-yl]methyl}-8-[(1S,2S)-2-hydroxycyclohexyl]-8,9-dihydro-7H-pyrrolo[3,4-h]quinolin-7-one] was tested, and the EC50 (read-out: M1 Pot.) was 246 nM.
With O=C1c2cc(CN3CCC(F)(C#Cc4ccc(F)cc4)CC3)c3cccnc3c2CN1C1CCCCC1O (stereo not shown) [Example 133, 5-({4-fluoro-4-[(4-fluorophenyl)ethynyl]piperidin-1-yl}methyl)-8-(2-hydroxycyclohexyl)-8,9-dihydro-7H-pyrrolo[3,4-h]quinolin-7-one] the EC50 (read-out: M1 Pot.) was 129 nM.
With O=C1c2cc(CN3CCC(F)(Cc4ccccc4)CC3)c3cccnc3c2CN1C1CCCCC1O (stereo not shown) [Example 134, 5-[(4-benzyl-4-fluoropiperidin-1-yl)methyl]-8-(2-hydroxycyclohexyl)-8,9-dihydro-7H-pyrrolo[3,4-h]quinolin-7-one] the EC50 (read-out: M1 Pot.) was 207 nM.
With N#CC1(Cc2ccncc2)CCN(Cc2cc3c(c4ncccc24)CN(C2CCCCC2O)C3=O)CC1 (stereo not shown) [Example 135, 1-{[8-(2-hydroxycyclohexyl)-7-oxo-8,9-dihydro-7H-pyrrolo[3,4-h]quinolin-5-yl]methyl}-4-(pyridin-4-ylmethyl)piperidine-4-carbonitrile] the EC50 (read-out: M1 Pot.) was 156 nM.
For N#CC1(c2ccccc2)CCN(Cc2cc3c(c4ncccc24)CN([C@H]2CCCC[C@@H]2O)C3=O)CC1 [Example 136, 1-({8-[(1S,2S)-2-hydroxycyclohexyl]-7-oxo-8,9-dihydro-7H-pyrrolo[3,4-h]quinolin-5-yl}methyl)-4-phenylpiperidine-4-carbonitrile], the EC50 (read-out: M1 Pot.) was 14 nM.
CC1c2c(cc(CN3CCC(C#N)(c4ccccc4)CC3)c3cccnc23)C(=O)N1C1CCCCC1O (stereo not shown) [Example 137, 1-{[8-(2-hydroxycyclohexyl)-9-methyl-7-oxo-8,9-dihydro-7H-pyrrolo[3,4-h]quinolin-5-yl]methyl}-4-phenylpiperidine-4-carbonitrile] showed an EC50 (read-out: M1 Pot.) of 480 nM.
With CC1c2c(cc(CN3CCC(C#N)(c4ccccc4)CC3)c3cccnc23)C(=O)N1C1CCCCC1O (stereo not shown) [Example 138, 1-{[8-(2-hydroxycyclohexyl)-9-methyl-7-oxo-8,9-dihydro-7H-pyrrolo[3,4-h]quinolin-5-yl]methyl}-4-phenylpiperidine-4-carbonitrile] the EC50 (read-out: M1 Pot.) was 69 nM.
O=C1c2cc(CN3CCC(c4ccccc4)CC3)c3cccnc3c2CN1C1CCCCC1O (stereo not shown) [Example 139, 8-(2-hydroxycyclohexyl)-5-[(4-phenylpiperidin-1-yl)methyl]-8,9-dihydro-7H-pyrrolo[3,4-h]quinolin-7-one] gave an EC50 (read-out: M1 Pot.) of 85 nM.
In the case of CC1c2c(cc(CN3CCC(c4ccccc4)CC3)c3cccnc23)C(=O)N1C1CCCCC1O (stereo not shown) [Example 140, 8-(2-hydroxycyclohexyl)-9-methyl-5-[(4-phenylpiperidin-1-yl)methyl]-8,9-dihydro-7H-pyrrolo[3,4-h]quinolin-7-one], the EC50 (read-out: M1 Pot.) is reported as 3200 nM.
Compound CC1c2c(cc(CN3CCC(c4ccccc4)CC3)c3cccnc23)C(=O)N1C1CCCCC1O (stereo not shown) [Example 141, 8-(2-hydroxycyclohexyl)-9-methyl-5-[(4-phenylpiperidin-1-yl)methyl]-8,9-dihydro-7H-pyrrolo[3,4-h]quinolin-7-one] has an EC50 (read-out: M1 Pot.) of 490 nM.
Compound O=C1c2cc(CN3CCC(c4ccncc4)CC3)c3cccnc3c2CN1C1CCCCC1O (stereo not shown) [Example 142, 8-(2-hydroxycyclohexyl)-5-[(4-pyridin-4-ylpiperidin-1-yl)methyl]-8,9-dihydro-7H-pyrrolo[3,4-h]quinolin-7-one] has an EC50 (read-out: M1 Pot.) of 51 nM.
CC1c2c(cc(CN3CCC(c4ccncc4)CC3)c3cccnc23)C(=O)N1C1CCCCC1O (stereo not shown) [Example 143, 8-(2-hydroxycyclohexyl)-9-methyl-5-[(4-pyridin-4-ylpiperidin-1-yl)methyl]-8,9-dihydro-7H-pyrrolo[3,4-h]quinolin-7-one] was tested, and the EC50 (read-out: M1 Pot.) was 89 nM.
O=C1c2cc(CN3CCC(O)(c4ccncc4)CC3)c3cccnc3c2CN1C1CCCCC1O (stereo not shown) [Example 144, 8-(2-hydroxycyclohexyl)-5-[(4-hydroxy-4-pyridin-4-ylpiperidin-1-yl)methyl]-8,9-dihydro-7H-pyrrolo[3,4-h]quinolin-7-one] was tested, and the EC50 (read-out: M1 Pot.) was 510 nM.
Work on N#CC1(c2ccccn2)CCN(Cc2cc3c(c4ncccc24)CN([C@H]2CCCC[C@@H]2O)C3=O)CC1 [Example 145, 1-({8-[(1S,2S)-2-hydroxycyclohexyl]-7-oxo-8,9-dihydro-7H-pyrrolo[3,4-h]quinolin-5-yl}methyl)-4-pyridin-2-ylpiperidine-4-carbonitrile] yielded an EC50 (read-out: M1 Pot.) of 7.6 nM.
For O=C1c2cc(CN3CCC(F)(c4ccccn4)CC3)c3cccnc3c2CN1C1CCCCC1O (stereo not shown) [Example 146, 5-[(4-fluoro-4-pyridin-2-ylpiperidin-1-yl)methyl]-8-(2-hydroxycyclohexyl)-8,9-dihydro-7H-pyrrolo[3,4-h]quinolin-7-one], the EC50 (read-out: M1 Pot.) was 11 nM.
For CC1c2c(cc(CN3CCC(F)(c4ccccn4)CC3)c3cccnc23)C(=O)N1[C@@H]1CCCC[C@@H]1O (stereo partly drawn) [Example 147, 5-[(4-fluoro-4-pyridin-2-ylpiperidin-1-yl)methyl]-8-[(1R,2S)-2-hydroxycyclohexyl]-9-methyl-8,9-dihydro-7H-pyrrolo[3,4-h]quinolin-7-one], the EC50 (read-out: M1 Pot.) was 70 nM.
Cc1ccnc(C2(C#N)CCN(Cc3cc4c(c5ncccc35)CN(C3CCCCC3O)C4=O)CC2)c1 (stereo not shown) [Example 148, 1-{[8-(2-hydroxycyclohexyl)-7-oxo-8,9-dihydro-7H-pyrrolo[3,4-h]quinolin-5-yl]methyl}-4-(4-methylpyridin-2-yl)piperidine-4-carbonitrile] showed an EC50 (read-out: M1 Pot.) of 4.7 nM.
In the case of C[C@@H]1c2c(cc(CN3CCC(F)(c4ccccn4)CC3)c3cccnc23)C(=O)N1[C@H]1CCCC[C@@H]1O [Example 153, (9R)-5-[(4-fluoro-4-pyridin-2-ylpiperidin-1-yl)methyl]-8-[(1S,2S)-2-hydroxycyclohexyl]-9-methyl-8,9-dihydro-7H-pyrrolo[3,4-h]quinolin-7-one], the EC50 (read-out: M1 Pot.) is reported as 8 nM.
COc1cccc(C2(C#N)CCN(Cc3cc4c(c5ncccc35)CN([C@H]3CCCC[C@@H]3O)C4=O)CC2)n1 [Example 154, 1-({8-[(1S,2S)-2-hydroxycyclohexyl]-7-oxo-8,9-dihydro-7H-pyrrolo[3,4-h]quinolin-5-yl}methyl)-4-(6-methoxypyridin-2-yl)piperidine-4-carbonitrile] was tested, and the EC50 (read-out: M1 Pot.) was 19 nM.
With Cn1cc(N2CCN(Cc3cc4c(c5ncccc35)CN([C@H]3CCCC[C@@H]3O)C4=O)CC2)cn1 [Example 157, 8-[(1S,2S)-2-hydroxycyclohexyl]-5-{[4-(1-methyl-1H-pyrazol-4-yl)piperazin-1-yl]methyl}-8,9-dihydro-7H-pyrrolo[3,4-h]quinolin-7-one] the EC50 (read-out: M1 Pot.) was 42 nM.
